Earlier results in patent publication US7541371B2, “Method for treating a motor neuron disease” (Eisai R&D Management Co., Ltd., priority 2006, dated 2009).

Target: T1, serotonin 1A receptor (Rattus norvegicus, UniProt P19327)
T1 construct: mixed with the receptor fraction of the hippocampus; from tissue; host or cells: rat hippocampus
T1 sequence (P19327 1-422): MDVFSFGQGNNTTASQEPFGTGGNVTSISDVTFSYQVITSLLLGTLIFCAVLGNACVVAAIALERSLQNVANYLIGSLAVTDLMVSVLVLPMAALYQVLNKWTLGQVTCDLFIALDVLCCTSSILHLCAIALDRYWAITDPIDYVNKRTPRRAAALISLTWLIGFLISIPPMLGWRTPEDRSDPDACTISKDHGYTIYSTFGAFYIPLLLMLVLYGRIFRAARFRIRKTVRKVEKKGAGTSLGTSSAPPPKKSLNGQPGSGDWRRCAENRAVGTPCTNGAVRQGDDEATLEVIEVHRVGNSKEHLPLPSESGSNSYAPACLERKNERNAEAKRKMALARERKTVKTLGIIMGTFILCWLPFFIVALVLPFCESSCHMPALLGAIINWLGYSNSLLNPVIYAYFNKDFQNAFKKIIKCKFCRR
Conditions: rat hippocampus receptor fraction, 0.5 nM [3H]8-hydroxy-dipropylaminotetralin; compounds 7 and 8, WO 99/18077; read-out: 5HT1a; cited from earlier work

Q: With CCN1CCN(c2nc(-c3ccc(OCC(C)(C)O)cc3)cc3sccc23)CC1 [Compound 8, 1-{4-[4-(4-ethylpiperazin-1-yl)thieno[3,2-c]pyridin-6-yl]phenoxy}-2-methylpropan-2-ol] as the molecule, how does the Ki read?
A: 54.9 nM
